What is called IC50 is the concentration that inhibits the measured activity by half. One may read the Ki as the equilibrium dissociation constant of an inhibitor or competing ligand from its target.

The text below walks through data of patent US7049116B2, “Engineered protein kinases which can utilize modified nucleotide triphosphate substrates” (Princeton University, priority 1997, dated 2006).

Entries after “also recorded” stand apart in the source; their conditions may differ.

The test system of assay [1] is B cell receptor (BCR) mediated phosphorylation cascade in murine spleen cells. Nature of the assay: Murine B cell assay (B cell receptor mediated tyrosine phosphorylation). The class given is cell-based. The following applies: 100 μM in […] DMSO, anti-IgM stimulated murine spleen cells. The procedure:
Splenic lymphocytes were isolated from 6-20 week old Balb/c or C57/B6 mice. The cells were washed out of the spleen into RPMI media containing 1 mg/ml DNase I and the red blood cells were lysed in 17 mM tris-ammonium chloride (pH 7.2). Approximately 4×10^6 cells were incubated at 37° C. for thirty minutes with 100 μM of (3g) or (2) in 1.1% DMSO. B cell stimulation was initiated by the addition of […] of goat anti-mouse IgM (Jackson ImmunoResearch) and subsequent incubation for five minutes at 37° C. The cells were isolated by centrifugation (13,000 rpm, two minutes) and lysed (lysis buffer: 1% Triton x-100, 50 mM Tris (pH 7.4), 2 mM EDTA, 150 mM NaCl, 100 mM PMSF, 2 mM sodium orthovanadate, 10 mg/ml leupeptin, 10 mg/ml apoprotin). The cellular debris was then pelleted at 13,000 rpm for fifteen minutes. Cellular proteins were separated by 10% polyacrylamide gel electrophoresis and transferred to a nitrocellulose membrane by Western blotting. Phosphotyrosine containing proteins were visualized by immunoblotting with anti-phosphotyrosine antibody (Upstate Biotechnology).

In assay [2] the target is T1, WT Fyn (Homo sapiens, UniProt P06241).
T1 construct: GST; made in house; host or cells: E. coli DH5α (pGEX-KT)
Nature of the assay: In vitro kinase inhibition assay. The class given is biochemical.

For assay [3], the system named is NIH3T3 cells expressing v-Src. The experiment in a line: Anti-phosphotyrosine blots of pyrazolopyrimidine treated NIH3T3 cells (Examples 18-19). The following applies: FIG. 12B two left lanes. The class given is cell-based.
Procedure: Anti-phosphotyrosine blots of pyrazolo pyrimidine (2-6) (25 μM) treated NIH3T3 cells expressing v-Src kinase were performed by lysing cells in modified RIPA buffer according to the method of Coussens et al. (1985) Biol. 2753-2763. Cells were also treated for various times before lysis and antiphosphotyrosine detection. Proteins were separated by 12.5% SDS-PAGE and transferred to Protran BA85 (Schleicher-Schuell). The blot was probed with the antiphosphotyrosine monoclonal antibody 4G10 (obtained from Dr. Brian Druker, Oregon Health Sciences Center) and the bound antibody was detected via enhanced chemiluminescence (Pierce) following treatment with HRP-coupled goat anti-mouse antibody (VWR) according to the manufacturer's instructions.
The assays were performed by making anti-phosphotyrosine blots of pyrazolopyrimidine (26) (25 μM) treated NIH3T3 cells expressing either v-Src or v-Src (I338G) kinases were performed by lysing cells in modified RIPA buffer according to the method of Coussens et al. (1985) Biol. 2753-2763. […]
(§4) The blot was probed with the anti-phosphotyrosine monoclonal antibody 4G10 and the bound antibody was detected via enhanced chemiluminescence (Pierce) following treatment with HRP-coupled goat-anti-mouse antibody (VWR) according to the manufacturer's instructions.
Assay [4] has as its system NIH3T3 cells expressing v-Src (I338G). Nature of the assay: Anti-phosphotyrosine blots of pyrazolopyrimidine treated NIH3T3 cells (Example 19). The class given is cell-based.
Procedure: The assays were performed by making anti-phosphotyrosine blots of pyrazolopyrimidine (26) (25 μM) treated NIH3T3 cells expressing either v-Src or v-Src (I338G) kinases were performed by lysing cells in modified RIPA buffer according to the method of Coussens et al. (1985) Biol. 2753-2763. Cells were also treated for various times (in a cell culture CO2 incubator) before lysis and anti-phosphotyrosine detection. Proteins were separated by 12.5% SDS-PAGE and transferred to Protran BA85 (Schleicher-Schuell).
as §4
Assay [5] deals with wild-type Fyn (Homo sapiens, UniProt P06241). Nature of the assay: Peptide phosphorylation assay with [γ-32P]ATP (Example 13). The class given is biochemical. The following applies: purified kinase; read-out: IC50 for inhibition of wild-type Fyn. The text has this:
To identify compounds that would not inhibit any existing cellular kinases, Applicant screened the panel of synthetic pyrazolo pyramidine analogs (1-6) against two closely related purified tyrosine kinases, v-Src and Fyn, in a peptide phosphorylation assay using [γ-^32P]

Assay [6] has as its target T2, I338G v-Src (Rous sarcoma virus subgroup A, UniProt P00524, DEL77-225/I338G).
T2 construct: made in house; host or cells: E. coli DH5α (pGEX-KT)
The experiment in a line: biochemical.

Assay [7] concerns I338G v-Src. Nature of the assay: biochemical. Also noted: species or system Rous sarcoma virus.
Assay [8] has as its system I338G v-Src transformed NIH-3T3 fibroblasts. The experiment in a line: Microscopy of transformed fibroblasts (light microscopy, phalloidin-FITC). The following applies: 100 μM, 48 hours. The class given is cell-based. The procedure:
(§1) Non-transformed, WT v-Src transformed, and I338G v-Src transformed NIH-3T3 fibroblasts were grown in DMEM/10% BCS on tissue culture treated slides. v-Src expressing cells were treated with either 1.1% DMSO or 100 μM (^3g) in 1.1% DMSO. After forty-eight hours cells were photographed at 400× magnification on an Nikon TMS light microscope. Immediately following light microscopy, the cells were fixed for twenty minutes in 3.7% formaldehyde/PBS and permeabilized for sixty seconds in 0.2% Triton x-100 in PBS. Permeabilized cells were incubated with 200 ng/ml phalloidin-FITC/PBS for twenty minutes. Slides were rinsed with PBS and polymerized actin was visualized by fluorescence microscopy at 600× magnification on a Zeiss fluorescence microscope.

In assay [9] the test system is WT v-Src transformed NIH-3T3 fibroblasts. The assay is described as above. The class given is cell-based. The following applies: 100 μM, 48 hours. The procedure:
as §1

Assay [10] addresses T3, PKCδ (Homo sapiens, UniProt Q05655).
T3 construct: 6-His; made in house; host or cells: Bac-to-Bac baculovirus system (pFastBac B vector)
Nature of the assay: In vitro kinase inhibition assay. The class given is biochemical. Also noted: dose or concentration left out as unconfirmed. The procedure:
(§2) IC50's for non-src family kinases were measured equivalently with the following exceptions. […] An optimized Abl substrate, […] (SEQ ID NO: 18), 133 mg/ml) was used for Abl assays.

In assay [11] the test system is I338G v-Src transformed NIH3T3 cells. The experiment in a line: Inhibition of v-Src in NIH3T3 fibroblasts (phosphotyrosine blot). The class given is cell-based. The procedure:
(§3) Non-transformed NIH3T3 cells, WT v-Src transformed NIH3T3 cells, and I338G v-Src transformed NIH3T3 cells were incubated at 37° C. with 1.1% DMSO or 100 μM (3g) in 1.1% DMSO. After twelve hours, the cells were washed with PBS and lysed (lysis buffer: 1% Triton x-100, 50 mM tris (pH 7.4), 2 mM EDTA, 150 mM NaCl, […], 2 mM sodium orthovanadate, 10 mg/ml leupeptin, 10 mg/ml apoprotin). The lysate was clarified by centrifugation at 13,000 rpm for fifteen minutes. Lysate protein concentrations were normalized and equal volumes of the lysate were resolved electrophoretically and analyzed for phosphotyrosine content as described above.

For assay [12], the system named is WT v-Src transformed NIH3T3 cells. The description is as above. The class given is cell-based. The following applies: 100 μM, twelve hours. The procedure: as §3
Assay [13] deals with T4, PKA (Homo sapiens, UniProt P17612).
T4 construct: purchased Pierce
The experiment in a line: In vitro kinase inhibition assay. The class given is biochemical. The following applies: concentrations up to 300 mM. The procedure: as §2

Assay [14] has as its target T5, T339G Fyn (Homo sapiens, UniProt P06241, T342G).
T5 construct: GST; made in house; host or cells: E. coli DH5α (pGEX-KT)
The experiment in a line: In vitro kinase inhibition assay. The class given is biochemical.

T5 sequence (P06241 1-534 isoform P06241-2 T339G): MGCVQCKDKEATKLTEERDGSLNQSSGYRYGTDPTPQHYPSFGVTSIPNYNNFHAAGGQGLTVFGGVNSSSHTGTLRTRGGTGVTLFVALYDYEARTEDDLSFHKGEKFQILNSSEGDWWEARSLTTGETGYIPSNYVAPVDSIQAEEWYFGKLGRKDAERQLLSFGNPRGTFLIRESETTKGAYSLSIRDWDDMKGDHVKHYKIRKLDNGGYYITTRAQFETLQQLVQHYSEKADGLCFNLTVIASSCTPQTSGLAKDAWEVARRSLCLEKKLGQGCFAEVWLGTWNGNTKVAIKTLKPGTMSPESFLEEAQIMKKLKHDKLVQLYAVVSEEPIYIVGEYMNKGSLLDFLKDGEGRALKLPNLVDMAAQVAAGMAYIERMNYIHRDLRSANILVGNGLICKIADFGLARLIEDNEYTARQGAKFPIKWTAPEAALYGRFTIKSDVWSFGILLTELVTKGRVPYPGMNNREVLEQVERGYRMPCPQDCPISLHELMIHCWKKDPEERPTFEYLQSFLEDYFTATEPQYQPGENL
Sequence of wild-type Fyn (P06241 whole entry, species assumed): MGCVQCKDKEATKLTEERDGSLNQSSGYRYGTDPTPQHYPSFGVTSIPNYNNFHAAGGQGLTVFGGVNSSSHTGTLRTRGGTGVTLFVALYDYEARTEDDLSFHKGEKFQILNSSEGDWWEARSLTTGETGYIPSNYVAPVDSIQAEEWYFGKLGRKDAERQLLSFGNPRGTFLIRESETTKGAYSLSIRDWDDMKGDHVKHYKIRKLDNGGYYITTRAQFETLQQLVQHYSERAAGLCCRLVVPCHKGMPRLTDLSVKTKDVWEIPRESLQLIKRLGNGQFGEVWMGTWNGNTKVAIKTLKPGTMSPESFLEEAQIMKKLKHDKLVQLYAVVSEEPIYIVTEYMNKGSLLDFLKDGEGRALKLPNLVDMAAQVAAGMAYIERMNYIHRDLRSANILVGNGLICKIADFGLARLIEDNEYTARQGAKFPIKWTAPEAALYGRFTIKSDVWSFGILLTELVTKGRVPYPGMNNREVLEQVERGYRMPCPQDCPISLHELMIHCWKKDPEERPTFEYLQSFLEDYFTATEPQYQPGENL
T1 sequence (P06241 1-534 isoform P06241-2): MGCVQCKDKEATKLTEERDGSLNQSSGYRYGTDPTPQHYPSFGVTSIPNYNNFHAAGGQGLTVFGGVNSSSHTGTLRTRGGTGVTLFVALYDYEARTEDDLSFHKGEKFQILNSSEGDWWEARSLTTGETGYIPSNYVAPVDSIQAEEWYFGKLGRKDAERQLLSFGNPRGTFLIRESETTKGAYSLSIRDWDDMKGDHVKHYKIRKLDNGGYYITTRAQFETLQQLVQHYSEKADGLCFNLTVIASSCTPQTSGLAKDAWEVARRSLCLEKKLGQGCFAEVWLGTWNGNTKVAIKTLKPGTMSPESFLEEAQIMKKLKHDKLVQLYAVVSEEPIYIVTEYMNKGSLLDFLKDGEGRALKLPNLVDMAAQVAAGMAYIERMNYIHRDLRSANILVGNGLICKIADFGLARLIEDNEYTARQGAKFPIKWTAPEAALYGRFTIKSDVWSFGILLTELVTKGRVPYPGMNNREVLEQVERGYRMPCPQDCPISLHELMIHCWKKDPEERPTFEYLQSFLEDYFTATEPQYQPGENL
T3 sequence (Q05655 whole entry): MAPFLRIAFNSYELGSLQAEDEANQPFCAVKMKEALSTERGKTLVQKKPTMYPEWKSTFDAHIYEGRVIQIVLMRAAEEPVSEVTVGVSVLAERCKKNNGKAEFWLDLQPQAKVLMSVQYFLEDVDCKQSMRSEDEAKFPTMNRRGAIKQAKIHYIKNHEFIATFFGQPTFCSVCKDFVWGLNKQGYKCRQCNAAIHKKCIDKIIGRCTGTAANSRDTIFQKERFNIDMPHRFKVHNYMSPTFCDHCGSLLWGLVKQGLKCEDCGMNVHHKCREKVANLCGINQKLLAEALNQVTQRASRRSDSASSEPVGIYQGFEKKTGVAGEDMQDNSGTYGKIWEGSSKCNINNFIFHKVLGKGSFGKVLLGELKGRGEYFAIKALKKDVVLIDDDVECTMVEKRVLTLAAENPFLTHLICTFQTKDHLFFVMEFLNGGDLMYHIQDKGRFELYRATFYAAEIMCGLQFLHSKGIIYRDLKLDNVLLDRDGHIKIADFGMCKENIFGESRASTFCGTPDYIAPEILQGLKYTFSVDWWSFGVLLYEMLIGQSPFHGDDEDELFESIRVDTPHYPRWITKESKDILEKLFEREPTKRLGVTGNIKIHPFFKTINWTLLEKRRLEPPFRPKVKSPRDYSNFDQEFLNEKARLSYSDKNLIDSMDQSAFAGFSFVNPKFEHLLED

For `CC(C)(C)n1nc(-c2ccccc2)c2c(N)ncnc21` [(2), 4-amino-1-tert-butyl-3-phenylpyrazolo(3,4-d)pyrimidine, reference compound], the “phosphotyrosine pattern of B cell stimulation” value in [1] is listed as “significant reduction in tyrosine phosphorylation”. The “inhibition of WT Fyn (in words)” value in [2] was “highly potent (low nM)”.

`CC(C)(C)n1nc(-c2ccccc2)c2c(NC(=O)C3CCCC3)ncnc21` [Analog 3b, 4-cyclopentylamido-1-tert-butyl-3-phenylpyrazolo[3,4]pyrimidine]: in assay [3], the phosphoprotein band pattern entry is listed as “does not inhibit wild type v-Src kinase”. Moreover, the “36 kDa phosphoprotein band” value in assay [4] (100 μM) is reported as “lost after treatment”. In addition, the “inhibitor concentration at which phosphorylation of the 36 kDa band reappears” value in assay [4] (inhibitor diluted) is less than 5 pM. In addition, in [5], the IC50 was more than 400000 nM.

For the molecule `CC(C)(C)c1ccc(C(=O)Nc2ncnc3c2c(-c2ccccc2)nn3C(C)(C)C)cc1` [Analog 3g, 4-(p-tert-butyl)benzamido-1-tert-butyl-3-phenylpyrazolo[3,4-d]pyrimidine], the IC50 stood at 430 nM in assay [6]; 50000 nM in assay [11] (Mus musculus, NIH3T3, read-out: IC50 for p36 phosphotyrosine signal); 830 nM in assay [14]. This molecule displayed a Ki in [6] of approximately 400 nM. Further, in assay [6] (Lineweaver-Burk analysis), the mode of inhibition result was “competitively with respect to ATP”. Also, in assay [7] (I338G v-Src vs WT Fyn), the “selectivity for engineered v-Src over WT Fyn” value is listed as “over 700 times”. Moreover, the “selectivity for mutant v-Src as compared to wild type” value in assay [7] (I338G v-Src vs WT v-Src) is given as “at least a thousand-fold”. In addition, the entries for the “polymerized actin pattern (phalloidin-FITC)” value in assay [8] (fluorescence microscopy) and in assay [9] (fluorescence microscopy) were “defined polymerized actin strings; also recorded: selectively regain actin stress fibers” and “indistinguishable from untreated WT cells”, respectively. Further, the cell morphology entry in [8] (light microscopy) was “dramatic changes in cell morphology which are consistent with the reversal of transformation; also recorded: selectively acquire a flattened morphology”; in assay [9] (light microscopy), “prototypical rounded morphology and overlapping growth patterns of transformed cells”. In addition, the “inhibition of PKCδ” value in [10] is on record as “not detectably inhibited”. The “cellular IC50 relative to the in vitro value” in [11] is “roughly one-hundred times”. In assay [11] (100 μM, twelve hours), the “cellular level of phosphotyrosine” value is recorded as “moderate overall decrease”. Besides, the “tyrosine phosphorylation of p36” value in assay [11] (100 μM, twelve hours) was “dramatic diminution; also recorded: blocks p36 phosphorylation”. The “tyrosine phosphorylation in WT v-Src infected cells” value in assay [12] is on record as “no loss of tyrosine phosphorylation”. Moreover, the “inhibition of PKA” value in [13] is “not detectably inhibited”. The “selectivity for T339G Fyn over WT Fyn” value in assay [14] is “greater than 300 fold”.
